Laboratory results reported in US20230265151A1, “GIP/GLP1 CO-AGONIST COMPOUNDS” (priority 2020, published 2023).
Read-outs that look alike come from different tables or passages of the source.

Tests used:
[1] = biological target: T1, human Gcg receptor (hGcgR) (Homo sapiens, UniProt P47871); experiment: [125I]-Glucagon binding, SPA with membranes of HEK293 cells expressing hGcgR; details: human GcgR; geometric mean (SEM, n); read-out: Binding Affinity Ki, nM (SEM, n) hGCGR
T1 construct: expressed in transfected cells; crude membranes
T1 sequence (P47871 26-477): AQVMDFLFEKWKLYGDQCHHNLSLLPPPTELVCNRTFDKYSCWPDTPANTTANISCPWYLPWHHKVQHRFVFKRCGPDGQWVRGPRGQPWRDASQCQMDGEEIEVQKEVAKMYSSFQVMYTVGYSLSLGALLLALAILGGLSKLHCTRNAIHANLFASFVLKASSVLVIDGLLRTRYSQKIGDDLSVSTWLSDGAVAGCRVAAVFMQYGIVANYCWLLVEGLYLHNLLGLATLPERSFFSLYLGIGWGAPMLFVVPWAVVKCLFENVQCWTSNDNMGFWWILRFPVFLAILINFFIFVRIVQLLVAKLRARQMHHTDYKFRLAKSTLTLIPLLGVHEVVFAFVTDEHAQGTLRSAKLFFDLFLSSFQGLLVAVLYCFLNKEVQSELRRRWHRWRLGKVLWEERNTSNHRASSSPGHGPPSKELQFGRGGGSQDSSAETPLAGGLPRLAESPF

hGCGR = biological target: T2, hGCGR (Homo sapiens, UniProt P47871); experiment: Functional cAMP formation (HTRF) in HEK-293 clonal cells expressing hGCGR, 0.1% bovine casein, without or with 1.0% human serum albumin; assay type: cell-based; details: geometric mean, read-out: hGCGR EC50, nM (SEM, n)
T2 construct: expressed in transfected cells
T2 sequence (P47871 26-477): as above
In short: (§1)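 Cells were stimulated with peptide for 30 min at 37° C, then lysed in buffer carrying cAMP-d2 and anti-cAMP Eu3+-cryptate for a competitive HTRF read after at least 60 min at room temperature. The 665/620 nm ratio was converted to nM cAMP against a standard curve.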

hGLP-1R = hGLP-1R (Homo sapiens, UniProt P43220); experiment: Functional cAMP formation (HTRF) in HEK-293 clonal cells expressing hGLP-1R, 0.1% bovine casein, without or with 1.0% human serum albumin; assay type: cell-based; set-up: expressed in transfected cells; details: 37° C.; for EC50: 0.1% bovine casein and 1.0% human serum albumin, geometric mean, read-out: hGLP-1R EC50, nM (SEM, n); for Emax: read-out: hGLP-1R Emax, % ± SEM
Sequence of hGLP-1R (P43220 24-463): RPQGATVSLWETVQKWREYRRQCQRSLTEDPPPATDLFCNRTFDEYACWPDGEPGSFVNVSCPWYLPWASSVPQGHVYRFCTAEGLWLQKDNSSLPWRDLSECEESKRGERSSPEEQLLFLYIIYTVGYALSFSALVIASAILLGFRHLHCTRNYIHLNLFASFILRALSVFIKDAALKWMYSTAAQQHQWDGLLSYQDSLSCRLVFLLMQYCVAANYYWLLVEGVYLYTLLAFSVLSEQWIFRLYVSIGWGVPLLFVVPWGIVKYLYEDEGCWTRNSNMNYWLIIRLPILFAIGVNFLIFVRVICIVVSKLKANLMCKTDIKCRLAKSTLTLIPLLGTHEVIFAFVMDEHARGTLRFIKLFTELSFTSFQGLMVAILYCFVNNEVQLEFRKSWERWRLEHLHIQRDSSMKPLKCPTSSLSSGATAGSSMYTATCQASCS
In short: as §1

[2] = biological target: T3, human GLP-1 receptor (hGLP-1R) (Homo sapiens, UniProt P43220); experiment: [125I]-GLP-1 binding, SPA with membranes of HEK293 cells expressing hGLP-1R; details: human GLP-1R; geometric mean (SEM, n); read-out: Binding Affinity Ki, nM (SEM, n) hGLP-1R
T3 construct: expressed in transfected cells; crude membranes
T3 sequence (P43220 24-463): as above

hGIPR = biological target: T4, hGIPR (Homo sapiens, UniProt P48546); experiment: Functional cAMP formation (HTRF) in HEK-293 clonal cells expressing hGIPR, 0.1% bovine casein, without or with 1.0% human serum albumin; assay type: cell-based; details: for EC50: geometric mean, read-out: hGIPR EC50, nM (SEM, n); for Emax: read-out: hGIPR Emax, % ± SEM
T4 construct: expressed in transfected cells
T4 sequence (P48546 22-466): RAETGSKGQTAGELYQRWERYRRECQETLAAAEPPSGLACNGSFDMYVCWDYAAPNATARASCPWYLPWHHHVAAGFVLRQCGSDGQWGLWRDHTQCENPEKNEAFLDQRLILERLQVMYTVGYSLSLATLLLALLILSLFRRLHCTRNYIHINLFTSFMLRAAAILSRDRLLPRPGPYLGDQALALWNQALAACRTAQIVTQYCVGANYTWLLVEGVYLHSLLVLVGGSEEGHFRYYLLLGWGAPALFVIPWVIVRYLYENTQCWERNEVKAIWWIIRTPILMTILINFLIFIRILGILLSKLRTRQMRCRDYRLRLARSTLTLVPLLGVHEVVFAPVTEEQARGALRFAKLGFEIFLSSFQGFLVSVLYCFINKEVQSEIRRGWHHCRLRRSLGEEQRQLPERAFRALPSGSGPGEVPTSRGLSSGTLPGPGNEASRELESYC
In short: as §1

[3] = 0.1% bovine casein and 1.0% human serum albumin, 37° C.
[4] = cAMP, incubated at 37° C., 0.1% bovine casein (no human serum albumin)
[5] = HEK293, 0.1% bovine casein and 1.0% human serum albumin, percent of maximal response to GLP-1(7-36)NH2
[6] = HEK293, percent of maximal response to GLP-1(7-36)NH2, 0.1% bovine casein, arithmetic mean

Row | SMILES | Ki [1] [nM] | EC50 (hGCGR; [3]) [nM] | EC50 (hGCGR; [4]) [nM] | EC50 (hGLP-1R) [nM] | Emax (hGLP-1R; [5]) [%] | Emax (hGLP-1R; [6]) [%] | Ki [2] [nM] | EC50 (hGIPR; [3]) [nM] | Emax (hGIPR; HEK293, 0.1% bovine casein and 1.0% human serum albumin, 37° C., percent of maximal response to GIP(1-42)NH2) [%] | Emax (hGIPR; HEK293, percent of maximal response to GIP(1-42)NH2, 37° C., 0.1% bovine casein, arithmetic mean) [%] | EC50 (hGIPR; [4]) [nM]
1 | CC[C@H](C)[C@H](NC(=O)[C@H](CC(C)C)NC(=O)[C@](C)(Cc1ccc(O)cc1)NC(=O)[C@@H](CCC(=O)O)NC(=O)[C@@H](NC(=O)[C@H](Cc1ccccc1)NC(=O)[C@H](CCC(=O)O)NC(=O)C(C)(C)NC(=O)[C@H](CCC(N)=O)NC(=O)[C@H](C)NC(=O)[C@H](CCCCNC(=O)COCCOCCNC(=O)COCCOCCNC(=O)CC[C@H](NC(=O)CCCCCCCCCCCCC(=O)O)C(=O)O)NC(=O)[C@H](CCCN)NC(=O)[C@H](CC(=O)O)NC(=O)[C@H](CC(C)C)NC(=O)[C@](C)(CC(C)C)NC(=O)[C@@H](NC(=O)[C@H](CO)NC(=O)[C@H](Cc1ccncc1)NC(=O)[C@H](CC(=O)O)NC(=O)[C@H](CO)NC(=O)[C@@H](NC(=O)[C@](C)(Cc1ccccc1F)NC(=O)[C@@H](NC(=O)CNC(=O)[C@H](CCC(=O)O)NC(=O)C(C)(C)NC(=O)[C@@H](N)Cc1ccc(O)cc1)[C@@H](C)O)[C@@H](C)O)[C@@H](C)CC)[C@@H](C)CC)C(=O)N[C@@H](CCC(=O)O)C(=O)NCC(=O)NCC(=O)N[C@@H](CCCCNC(=O)COCCOCCNC(=O)COCCOCCNC(=O)CC[C@H](NC(=O)CCCCCCCCCCCCC(=O)O)C(=O)O)C(=O)N[C@@H](CO)C(=O)N[C@@H](CO)C(=O)NCC(=O)N[C@@H](C)C(=O)N1CCC[C@H]1C(=O)N1CCC[C@H]1C(=O)N1CCC[C@H]1C(=O)N[C@@H](CO)C(N)=O [Example 1] | > 969 | > 9950 | > 9950 | 30.7 | 94.3 ± 4.39 | 97 ± 4.47 | 2.33 | 0.696 | 87.5 ± 3.24 | 90.2 ± 2.82 | 0.0145
2 | CC[C@H](C)[C@H](NC(=O)[C@H](CC(C)C)NC(=O)[C@](C)(Cc1ccc(O)cc1)NC(=O)[C@@H](CCC(=O)O)NC(=O)[C@@H](NC(=O)[C@H](Cc1ccccc1)NC(=O)[C@H](CCC(=O)O)NC(=O)C(C)(C)NC(=O)[C@H](CCC(N)=O)NC(=O)[C@H](C)NC(=O)[C@H](CCCCNC(=O)COCCOCCNC(=O)COCCOCCNC(=O)COCCOCCNC(=O)CC[C@H](NC(=O)CCCCCCCCCCCCC(=O)O)C(=O)O)NC(=O)[C@H](CCCN)NC(=O)[C@H](CC(=O)O)NC(=O)[C@H](CC(C)C)NC(=O)[C@](C)(CC(C)C)NC(=O)[C@@H](NC(=O)[C@H](CO)NC(=O)[C@H](Cc1ccncc1)NC(=O)[C@H](CC(=O)O)NC(=O)[C@H](CO)NC(=O)[C@@H](NC(=O)[C@](C)(Cc1ccccc1F)NC(=O)[C@@H](NC(=O)CNC(=O)[C@H](CCC(=O)O)NC(=O)C(C)(C)NC(=O)[C@@H](N)Cc1ccc(O)cc1)[C@@H](C)O)[C@@H](C)O)[C@@H](C)CC)[C@@H](C)CC)C(=O)N[C@@H](CCC(=O)O)C(=O)NCC(=O)NCC(=O)N[C@@H](CCCCNC(=O)COCCOCCNC(=O)COCCOCCNC(=O)COCCOCCNC(=O)CC[C@H](NC(=O)CCCCCCCCCCCCC(=O)O)C(=O)O)C(=O)N[C@@H](CO)C(=O)N[C@@H](CO)C(=O)NCC(=O)N[C@@H](C)C(=O)N1CCC[C@H]1C(=O)N1CCC[C@H]1C(=O)N1CCC[C@H]1C(=O)N[C@@H](CO)C(N)=O [Example 30] | > 966 | > 9950 | > 9950 | 18.3 | 96.5 ± 0.219 | 97.8 ± 10.7 | 2.66 | 0.337 |  |  | 0.0175
